In the NIST ThermoML archive (doi:10.1016/j.jct.2005.05.018):
“And” between values parts separate entries of the source, which are not always exact repeats. Identical values can stand only once.

Details: Liquid, Closed cell (Static) method

C[CH2][Sb]([CH2]C)[CH2]C [triethylstibine]
Details | vapor or sublimation pressure
238.42 K | 0.0037 kPa
243.46 K | 0.00611 kPa and 0.0061 kPa
248.47 K | 0.00991 kPa and 0.00989 kPa and 0.0099 kPa
253.48 K | 0.01569 kPa
258.48 K | 0.02451 kPa and 0.02448 kPa and 0.02449 kPa
263.48 K | 0.03735 kPa and 0.03734 kPa and 0.03733 kPa
268.48 K | 0.0557 kPa and 0.05561 kPa and 0.0556 kPa
273.68 K | 0.08268 kPa [middle of 4 runs]
278.49 K | 0.1181 kPa and 0.118 kPa
283.49 K | 0.1676 kPa
285.99 K | 0.1995 kPa
288.49 K | 0.2362 kPa and 0.2363 kPa
290.99 K | 0.2791 kPa and 0.279 kPa
293.49 K | 0.3288 kPa and 0.3282 kPa and 0.3281 kPa
295.99 K | 0.3849 kPa and 0.385 kPa
298.49 K | 0.4505 kPa and 0.4504 kPa and 0.4503 kPa
301 K | 0.5246 kPa
